pKi: −log10 of the molar value.
What follows are compounds tested against recombinant Mcl-1 (residues 172-327) (Homo sapiens (Human), UniProt Q07820) (assay: Fluorescence polarization anisotropy competition assay (FITC-Bak or FITC-Bim BH3 peptide) with Mcl-1). Details: not given.
Type: binding

recombinant Mcl-1 (residues 172-327), sequence (Q07820 172-327): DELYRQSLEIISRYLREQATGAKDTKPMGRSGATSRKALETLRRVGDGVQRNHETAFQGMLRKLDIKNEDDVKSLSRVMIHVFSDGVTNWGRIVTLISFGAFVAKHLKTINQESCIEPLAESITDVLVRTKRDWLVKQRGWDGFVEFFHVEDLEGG

SMILES	pKi
Cc1cc(OCCCc2c3n(c4c(-c5c(C)nn(C)c5C)cc(Cl)cc24)CCCN(c2cc(C(=O)O)cc4c2ccn4C)C3=O)cc(C)c1Cl [I-245, 4-(9-chloro-11-(3-(4-chloro-3,5-dimethylphenoxy)propyl)-1-oxo-7-(1,3,5-trimethyl-1H-pyrazol-4-yl)-4,5-dihydro-1H-[1,4]diazepino[1,2-a]indol-2(3H)-yl)-1-methyl-1H-indole-6-carboxylic acid]	6.52 to 7.00

Same assay, conditions: Table 2; Ki bins given in nM; FITC-Bak or FITC-Bim peptide competition; Ki converted from IC50; read-out: Ki for Inhibition of Mcl-1

Ki [nM]	SMILES
< 50	Cc1cc(OCCCc2c(C(=O)Nc3ccc(C(=O)O)cc3)[nH]c3c(-c4cccnc4C)cccc23)cc(C)c1Cl [I-37, 4-(3-(3-(4-chloro-3,5-dimethylphenoxy)propyl)-7-(2-methylpyridin-3-yl)-1H-indole-2-carboxamido)benzoic acid]
< 50	Cc1cc(OCCCc2c(C(=O)Nc3cc(C(=O)O)cc(N(C)CCN(C)C)c3)[nH]c3c(-c4c(C)nn(C)c4C)c(Cl)ccc23)cc(C)c1Cl [I-210, 3-(6-chloro-3-(3-(4-chloro-3,5-dimethylphenoxy)propyl)-7-(1,3,5-trimethyl-1H-pyrazol-4-yl)-1H-indole-2-carboxamido)-5-((2-(dimethylamino)ethyl)(methyl)amino)benzoic acid]
< 50	Cc1cc(OCCCc2c(C(=O)NCc3cccn3CC(=O)O)[nH]c3c(-c4c(C)nn(C)c4C)cccc23)cc(C)c1Cl [I-89, 2-(2-((3-(3-(4-chloro-3,5-dimethylphenoxy)propyl)-7-(1,3,5-trimethyl-1H-pyrazol-4-yl)-1H-indole-2-carboxamido)methyl)-1H-pyrrol-1-yl)acetic acid]
< 50	Cc1cc(OCCCc2c3n(c4c(-c5c(C)nn(C)c5C)c(Cl)ccc24)CCCN(c2cc(C(=O)O)c4ccn(CCN(C)C)c4c2)C3=O)cc(C)c1Cl [I-243, 6-(8-chloro-11-(3-(4-chloro-3,5-dimethylphenoxy)propyl)-1-oxo-7-(1,3,5-trimethyl-1H-pyrazol-4-yl)-4,5-dihydro-1H-[1,4]diazepino[1,2-a]indol-2(3H)-yl)-1-(2-(dimethylamino)ethyl)-1H-indole-4-carboxylic acid]
< 50	Cc1cc(OCCCc2c3n(c4c(-c5c(C)nn(C)c5C)c(Cl)ccc24)CCCN(c2cc(C(=O)O)cc(-c4cccn4C)c2)C3=O)cc(C)c1Cl [I-235, 3-(8-chloro-11-(3-(4-chloro-3,5-dimethylphenoxy)propyl)-1-oxo-7-(1,3,5-trimethyl-1H-pyrazol-4-yl)-4,5-dihydro-1H-[1,4]diazepino[1,2-a]indol-2(3H)-yl)-5-(1-methyl-1H-pyrrol-2-yl)benzoic acid]
< 50	Cc1cc(OCCCc2c(C(=O)NC[C@H]3CC[C@H](C(=O)O)CC3)[nH]c3c(-c4c(C)nn(C)c4C)c(Cl)ccc23)cc(C)c1Cl [I-324, (1r,4r)-4-((6-chloro-3-(3-(4-chloro-3,5-dimethylphenoxy)propyl)-7-(1,3,5-trimethyl-1H-pyrazol-4-yl)-1H-indole-2-carboxamido)methyl)cyclohexane-1-carboxylic acid]
< 50	Cc1cc(OCCCc2c3n(c4c(-c5c(C)nn(C)c5C)c(Cl)ccc24)CCCN(c2cc(C(=O)O)c4c(Cl)cn(C)c4c2)C3=O)cc(C)c1Cl [I-257, 3-chloro-6-(8-chloro-11-(3-(4-chloro-3,5-dimethylphenoxy)propyl)-1-oxo-7-(1,3,5-trimethyl-1H-pyrazol-4-yl)-4,5-dihydro-1H-[1,4]diazepino[1,2-a]indol-2(3H)-yl)-1-methyl-1H-indole-4-carboxylic acid]
< 50	Cc1cc(OCCCc2c(C(=O)N[C@H]3CCN(C(=O)C(=O)O)C3)[nH]c3c(-c4c(C)nn(C)c4C)c(Cl)ccc23)cc(C)c1Cl [I-325, (S)-2-(3-(6-chloro-3-(3-(4-chloro-3,5-dimethylphenoxy)propyl)-7-(1,3,5-trimethyl-1H-pyrazol-4-yl)-1H-indole-2-carboxamido)pyrrolidin-1-yl)-2-oxoacetic acid]
< 50	Cc1cc(OCCCc2c(C(=O)Nc3ccc(C(=O)O)c(N4CCOCC4)c3)[nH]c3c(-c4c(C)nn(C)c4C)c(Cl)ccc23)cc(C)c1Cl [I-91, 4-(6-chloro-3-(3-(4-chloro-3,5-dimethylphenoxy)propyl)-7-(1,3,5-trimethyl-1H-pyrazol-4-yl)-1H-indole-2-carboxamido)-2-morpholinobenzoic acid]
< 50	Cc1cc(OCCCc2c(C(=O)Nc3cccc(C(=O)O)c3)[nH]c3c(-c4cccnc4C)cccc23)cc(C)c1Cl [I-36, 3-(3-(3-(4-chloro-3,5-dimethylphenoxy)propyl)-7-(2-methylpyridin-3-yl)-1H-indole-2-carboxamido)benzoic acid]
< 50	Cc1cc(OCCCc2c3n(c4c(-c5c(C)nn(C)c5C)c(Cl)ccc24)CCN(c2cc(C(=O)O)cc(N4CCOCC4)c2)C3=O)cc(C)c1Cl [I-213, 3-(7-chloro-10-(3-(4-chloro-3,5-dimethylphenoxy)propyl)-1-oxo-6-(1,3,5-trimethyl-1H-pyrazol-4-yl)-3,4-dihydropyrazino[1,2-a]indol-2(1H)-yl)-5-morpholinobenzoic acid]
< 50	Cc1cc(OCCCc2c3n(c4c(-c5c(C)nn(C)c5C)c(Cl)ccc24)CCCN(c2cc(C(=O)O)cc4c2c(C=O)cn4C)C3=O)cc(C)c1Cl [I-254, 4-(8-chloro-11-(3-(4-chloro-3,5-dimethylphenoxy)propyl)-1-oxo-7-(1,3,5-trimethyl-1H-pyrazol-4-yl)-4,5-dihydro-1H-[1,4]diazepino[1,2-a]indol-2(3H)-yl)-3-formyl-1-methyl-1H-indole-6-carboxylic acid]
< 50	Cc1cc(OCCCc2c3n(c4c(-c5c(C)nn(C)c5C)c(Cl)ccc24)CCCN(c2cc(C(=O)O)c4cnn(C)c4c2)C3=O)cc(C)c1Cl [I-367, 6-(8-chloro-11-(3-(4-chloro-3,5-dimethylphenoxy)propyl)-1-oxo-7-(1,3,5-trimethyl-1H-pyrazol-4-yl)-4,5-dihydro-1H-[1,4]diazepino[1,2-a]indol-2(3H)-yl)-1-methyl-1H-indazole-4-carboxylic acid]

SMILES	Ki [nM]
Cc1cc(OCCCc2c(C(=O)NCCC(=O)NS(=O)(=O)c3cccc(C#N)c3)[nH]c3ccccc23)cc(C)c1Cl [I-19, 3-(3-(4-chloro-3,5-dimethylphenoxy)propyl)-N-(3-((3-cyanophenyl)sulfonamido)-3-oxopropyl)-1H-indole-2-carboxamide]	101 to 299
Cc1cc(OCCCc2c3n(c4c(-c5c(C)nn(C)c5C)c(Cl)ccc24)C(C)[C@@H](C)NC3=O)cc(C)c1Cl (stereo partly drawn) [I-119, (3R)-7-chloro-10-(3-(4-chloro-3,5-dimethylphenoxy)propyl)-3,4-dimethyl-6-(1,3,5-trimethyl-1H-pyrazol-4-yl)-3,4-dihydropyrazino[1,2-a]indol-1(2H)-one]	101 to 299
Cc1cc(OCCCc2c(C(=O)N(C)Cc3ccc(C(=O)O)o3)n(C)c3c(-c4c(C)nn(C)c4C)cccc23)cc(C)c1Cl [I-269, 5-((3-(3-(4-chloro-3,5-dimethylphenoxy)propyl)-N,1-dimethyl-7-(1,3,5-trimethyl-1H-pyrazol-4-yl)-1H-indole-2-carboxamido)methyl)furan-2-carboxylic acid]	101 to 299
Cc1cc(OCCCc2c(C(=O)NCc3ccc(C(=O)NS(=O)(=O)c4ccccc4)o3)[nH]c3ccccc23)cc(C)c1Cl [I-60, 3-(3-(4-chloro-3,5-dimethylphenoxy)propyl)-N-((5-((phenylsulfonyl)carbamoyl)furan-2-yl)methyl)-1H-indole-2-carboxamide]	101 to 299
Cc1cc(OCCCc2c(C(=O)NC3CCN(C(=O)c4cccc(Oc5ccccc5)c4)CC3)[nH]c3ccccc23)cc(C)c1Cl [I-67, 3-(3-(4-chloro-3,5-dimethylphenoxy)propyl)-N-(1-(3-phenoxybenzoyl)piperidin-4-yl)-1H-indole-2-carboxamide]	501 to 999
Cc1cc(OCCCc2c3n(c4c(-c5c(C)nn(C)c5C)c(Cl)ccc24)CCCN(Cc2cc(COc4ccccc4C(F)(F)F)cc(C(=O)O)c2)C3=O)cc(C)c1Cl [I-312, 3-((8-chloro-11-(3-(4-chloro-3,5-dimethylphenoxy)propyl)-1-oxo-7-(1,3,5-trimethyl-1H-pyrazol-4-yl)-4,5-dihydro-1H-[1,4]diazepino[1,2-a]indol-2(3H)-yl)methyl)-5-((2-(trifluoromethyl)phenoxy)methyl)benzoic acid]	51 to 100
Cc1cc(OCCCc2c3n(c4c(-c5c(C)nn(C)c5C)c(Cl)ccc24)CCCN(Cc2cc(C(=O)O)cc(N(C(=O)CC(C)C)C(=O)CC(C)C)c2)C3=O)cc(C)c1Cl [I-329, 3-((8-chloro-11-(3-(4-chloro-3,5-dimethylphenoxy)propyl)-1-oxo-7-(1,3,5-trimethyl-1H-pyrazol-4-yl)-4,5-dihydro-1H-[1,4]diazepino[1,2-a]indol-2(3H)-yl)methyl)-5-(3-methyl-N-(3-methylbutanoyl)butanamido)benzoic acid]	< 50
Cc1cc(OCCCc2c3n(c4c(-c5c(C)nn(C)c5C)c(Cl)ccc24)[C@@H](C)CN(Cc2ccc(C(=O)O)o2)C3=O)cc(C)c1Cl [I-148, (S)-5-((7-chloro-10-(3-(4-chloro-3,5-dimethylphenoxy)propyl)-4-methyl-1-oxo-6-(1,3,5-trimethyl-1H-pyrazol-4-yl)-3,4-dihydropyrazino[1,2-a]indol-2(1H)-yl)methyl)furan-2-carboxylic acid]	< 50

Same assay, conditions: Table 2; Ki bins given in μM; FITC-Bak or FITC-Bim peptide competition; Ki converted from IC50; read-out: Ki for Inhibition of Mcl-1

SMILES	Ki [nM]
Cc1cc(OCCCc2c(C(=O)NCCc3ccccc3)[nH]c3ccccc23)cc(C)c1Cl [I-42, 3-(3-(4-chloro-3,5-dimethylphenoxy)propyl)-N-phenethyl-1H-indole-2-carboxamide]	10000 to 50000
Cc1cc(OCCCc2c(C(=O)NCc3cccc(C(=O)NCc4ccccc4)c3)[nH]c3c(-c4c(C)n[nH]c4C)cccc23)cc(C)c1Cl [I-64, N-(3-(benzylcarbamoyl)benzyl)-3-(3-(4-chloro-3,5-dimethylphenoxy)propyl)-7-(3,5-dimethyl-1H-pyrazol-4-yl)-1H-indole-2-carboxamide]	10000 to 50000
Cc1cc(OCCCc2c(C(=O)NCc3ccccc3)[nH]c3ccccc23)cc(C)c1Cl [I-41, N-benzyl-3-(3-(4-chloro-3,5-dimethylphenoxy)propyl)-1H-indole-2-carboxamide]	10000 to 50000
